# Biological target: T1, PRMT1 (Homo sapiens, UniProt Q99873)
# T1 construct: GST-tagged PRMT1; made in house; host or cells: High Five insect cells (baculovirus)
# Assay: PRMT1 Biochemical Assay (3H-SAM Flashplate, peptide substrate)
# Conditions: 30 min preincubation, room temperature
# Text: S-adenosylmethionine (SAM), S-adenosylhomocysteine (SAH), bicine, Tween20, dimethylsulfoxide (DMSO), bovine skin gelatin (BSG), and Tris(2-carboxyethyl)phosphine hydrochloride solution (TCEP) were purchased from Sigma-Aldrich at the highest level of purity possible. ^3H-SAM was purchase from American Radiolabeled Chemicals with a specific activity of 80 Ci/mmol. 384-well streptavidin Flashplates were purchased from PerkinElmer.
# Peptide representative of human histone H4 residues 36-50 was synthesized with an N-terminal linker-affinity tag motif and a C-terminal amide cap by 21st Century Biochemicals. The peptide was purified by high-performance liquid chromatography (HPLC) to greater than 95% purity and confirmed by liquid chromatography mass spectrometry (LC-MS). The sequence was Biot-Ahx-[…]-amide (SEQ ID NO.: 1).
# Full-length human PRMT1 isoform 1 (NM_001536.5) transcript clone was amplified from an HEK 293 cDNA library, incorporating flanking 5′ sequence encoding a FLAG tag ([…]) (SEQ ID NO.:2) fused directly to Met 1 of PRMT1. The amplified gene was subcloned into pFastBacI (Life Technologies) modified to encode an N-terminal GST tag and a TEV cleavage sequence ([…] […] […] […]) (SEQ ID NO.:3) fused to Asp of the Flag tag of PRMT1.
# Recombinant baculovirus were generated according to Bac-to-Bac kit instructions (Life Technologies). Protein over-expression was accomplished by infecting exponentially growing High Five insect cell culture at 1.5×10^6 cell/ml with 1:100 ratio of virus. Infections were carried out at 27° C. for 48 hours, harvested by centrifugation, and stored at −80° C. for purification.
# General Procedure for PRMT1 Enzyme Assays on Peptide Substrates.
# The assays were all performed in a buffer consisting of 20 mM Bicine (pH=7.6), 1 mM TCEP, 0.005% BSG, and 0.002% Tween 20, prepared on the day of use. Compounds in 100% DMSO (1 ul) were spotted into a polypropylene 384-well V-bottom plates (Greiner) using a Platemate Plus outfitted with a 384-channel head (Thermo Scientific). DMSO (1 ul) was added to Columns 11, 12, 23, 24, rows A-H for the maximum signal control and 1 ul of SAH, a known product and inhibitor of PRMT1, was added to columns 11, 12, 23, 24, rows I-P for the minimum signal control. A cocktail (40 ul) containing the PRMT1 enzyme was added by Multidrop Combi (Thermo-Fisher). The compounds were allowed to incubate with PRMT1 for 30 min at room temperature, then a cocktail (10 ul) containing SAM and peptide was added to initiate the reaction (final volume=51 ul). The final concentrations of the components were as follows: PRMT1 was 0.5 nM, ^3H-SAM was 200 nM, non-radiolabeled SAM was 1.5 uM, peptide was 20 nM, SAH in the minimum signal control wells was 1 mM, and the DMSO concentration was 2%. The assays were stopped by the addition of non-radiolabeled SAM (10 ul) to a final concentration of 300 uM, which dilutes the ^3H-SAM to a level where its incorporation into the peptide substrate is no longer detectable. 50 ul of the reaction in the 384-well polypropylene plate was then transferred to a 384-well Flashplate and the biotinylated peptides were allowed to bind to the streptavidin surface for at least 1 hour before being washed once with 0.1% Tween20 in a Biotek ELx405 plate washer. The plates were then read in a PerkinElmer TopCount plate reader to measure the quantity of ^3H-labeled peptide bound to the Flashplate surface, measured as disintegrations per minute (dpm) or alternatively, referred to as counts per minute (cpm).
# Where dpm=disintegrations per minute, cmpd=signal in assay well, and min and max are the respective minimum and maximum signal controls.
# Where top and bottom are the normally allowed to float, but may be fixed at 100 or 0 respectively in a 3-parameter fit. The Hill Coefficient normally allowed to float but may also be fixed at 1 in a 3-parameter fit. Y is the % inhibition and X is the compound concentration.
# T1 sequence (Q99873 with tags, fused parts or gaps): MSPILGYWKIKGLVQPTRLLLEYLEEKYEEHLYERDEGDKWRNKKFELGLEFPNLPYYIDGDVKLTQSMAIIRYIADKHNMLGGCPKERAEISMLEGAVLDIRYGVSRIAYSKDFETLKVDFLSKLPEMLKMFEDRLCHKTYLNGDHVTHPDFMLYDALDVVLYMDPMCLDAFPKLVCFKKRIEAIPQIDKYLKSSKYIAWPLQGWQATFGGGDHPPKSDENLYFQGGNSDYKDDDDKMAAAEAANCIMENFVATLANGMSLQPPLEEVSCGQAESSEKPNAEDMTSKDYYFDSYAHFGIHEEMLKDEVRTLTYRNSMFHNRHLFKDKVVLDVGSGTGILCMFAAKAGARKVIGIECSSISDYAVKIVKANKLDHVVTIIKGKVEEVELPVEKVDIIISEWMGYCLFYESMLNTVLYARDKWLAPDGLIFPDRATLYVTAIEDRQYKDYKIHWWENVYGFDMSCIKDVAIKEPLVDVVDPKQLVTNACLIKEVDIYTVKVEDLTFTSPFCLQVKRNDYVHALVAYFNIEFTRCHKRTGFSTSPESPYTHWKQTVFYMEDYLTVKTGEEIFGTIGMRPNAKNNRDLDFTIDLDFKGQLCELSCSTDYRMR
row,IC50 [nM],Compound
1,101 to 1000,CN(CCN)Cc1c[nH]nc1-c1ccsc1 [Compound 3]
2,101 to 1000,CN(CCN)Cc1c[nH]nc1-c1ccoc1 [Compound 7]
3,101 to 1000,CN(CCN)Cc1c[nH]nc1-c1cnn(C)c1 [Compound 8]
4,101 to 1000,COc1ncc(-c2n[nH]cc2CN(C)CCN)cn1 [Compound 11]
5,1010 to 3000,CN(CCN)Cc1c[nH]nc1-c1cc[nH]n1 [Compound 14]
6,≤ 100,CCn1cc(-c2n[nH]cc2CN(C)CCN)cn1 [Compound 16]
7,≤ 100,"CN(CCN)Cc1c[nH]nc1-c1ccc2cnn(C)c2c1 [Compound 19, N^1-methyl-N^1-((3-(1-methyl-1H-indazol-6-yl)-1H-pyrazol-4-yl)methyl)ethane-1,2-diamine]"
8,≤ 100,CN(CCN)Cc1c[nH]nc1-c1ccc2ncnn2c1 [Compound 20]
9,≤ 100,"CN(CCN)Cc1c[nH]nc1-c1ccc2nccn2c1 [Compound 21, N^1-((3-(imidazo[1,2-a]pyridin-6-yl)-1H-pyrazol-4-yl)methyl)-N^1-methylethane-1,2-diamine]"
10,≤ 100,CC(C)n1cc(-c2n[nH]cc2CN(C)CCN)cn1 [Compound 22]
11,≤ 100,"CN(CCN)Cc1c[nH]nc1-c1cnn(Cc2ccccc2)c1 [Compound 24, N^1-((1′-benzyl-3,4′-bi(1H-pyrazol)-4-yl)methyl)-N^1-methylethane-1,2-diamine]"
12,≥ 10000,Cc1n[nH]c(C)c1-c1n[nH]cc1CN(C)CCN [Compound 25]
13,≤ 100,"CN(CCN)Cc1c[nH]nc1-c1ccc2[nH]ncc2c1 [Compound 27, N^1-((3-(1H-indazol-5-yl)-1H-pyrazol-4-yl)methyl)-N^1-methylethane-1,2-diamine]"
14,101 to 1000,CN(CCN)Cc1c[nH]nc1-c1cnc(C2CC2)nc1 [Compound 28]
15,101 to 1000,CN(CCN)Cc1c[nH]nc1-c1cccc2[nH]ncc12 [Compound 30]

# The remaining lines, values behind:
row,Compound,IC50 [nM]
1,CN(CCN)Cc1c[nH]nc1-c1cncnc1 [Compound 4],101 to 1000
2,CN(CCN)Cc1c[nH]nc1-c1cccs1 [Compound 5],101 to 1000
3,CN(CCN)Cc1c[nH]nc1-c1ccco1 [Compound 6],101 to 1000
4,CN(CCN)Cc1c[nH]nc1-c1ccc2scnc2c1 [Compound 9],≤ 100
5,Cc1noc(C)c1-c1n[nH]cc1CN(C)CCN [Compound 10],≥ 10000
6,CN(CCN)Cc1c[nH]nc1-c1cn[nH]c1 [Compound 12],101 to 1000
7,CN(CCN)Cc1c[nH]nc1-c1cnc2[nH]ccc2c1 [Compound 13],≤ 100
8,CN(CCN)Cc1c[nH]nc1-c1ccnn1C [Compound 15],1010 to 3000
9,CN(CCN)Cc1c[nH]nc1-c1cnn(-c2ccccc2)c1 [Compound 17],≤ 100
10,CN(CCN)Cc1c[nH]nc1-c1cnn(CCO)c1 [Compound 18],101 to 1000
11,"CC(C)Cn1cc(-c2n[nH]cc2CN(C)CCN)cn1 [Compound 23, N^1-((2′-isobutyl-3,4′-bi(1H-pyrazol)-4-yl)methyl)-N^1-methylethane-1,2-diamine]",≤ 100
12,CN(CCN)Cc1c[nH]nc1-c1ccc[nH]1 [Compound 29],1010 to 3000
